These results are taken from patent US9289496B2, “Lipid dipeptide and gel” (Nissan Chemical Industries, Ltd., priority 2008, dated 2016).

What all share (type): physicochemical
A short description of data set [1]: Evaluation of gelation of free N-palmitoyl-Gly-His in solution containing inorganic salt, amino acid or organic substance. The procedure:
Free N-palmitoyl-Gly-His prepared in Example 4 was placed into a screw tube (Maruemu No. 1, manufactured by Maruemu Corp.). An aqueous solution dissolving each additive described in Table 7 was added into the screw tube so as to have a free N-palmitoyl-Gly-His concentration of 0.5% or 1% (w/v). The mixture was heated at 100° C. with a constant temperature heat block (manufactured by Nippon Genetics Co., Ltd.), and then allowed to stand at room temperature.
In Table, a sample that formed a gel is shown as “O”, a sample that partially formed a gel is shown as “A”, and a sample without evaluation is shown as “-”.

Data set [2] can be described thus: Gelation test when adding methylparaben. The conditions noted are these: aqueous solution of 0.2 wt % methylparaben; 0.25, 0.5 or 1.0 wt % tested. As for the experimental part: An aqueous solution of 0.2 wt % methylparaben was prepared, and into the solution, free N-palmitoyl-Gly-His prepared in Example 4 was added so as to have a concentration of 0.25, 0.5, or 1.0 wt % to prepare a suspended mixture solution. Each mixture solution was heated at 95 to 99° C. until dissolved (for 6 to 25 minutes), and then allowed to cool to room temperature.

A short description of data set [3]: Preparation of film from sheet-shaped gel. The settings on record: 0.5% (w/v); 30%, 20% and 10% glycerin aqueous solutions; dissolved at 80° C. The procedure:
Into a screw tube (Maruemu No. 3, manufactured by Maruemu Corp.), 3 mg of N-palmitoyl-Gly-His.TFA salt prepared in Example 1 was placed. Into the screw tube, 0.6 ml of Japanese Pharmacopoeia purified water (Kyoei Pharmaceutical Industries, Ltd.) was added so as to have a concentration of 0.5% (w/v). The whole was heated at 105° C. for 5 minutes, and then allowed to stand at room temperature to prepare a gel of 0.5% N-palmitoyl-Gly-His.TFA salt.
Into the gel, 2 ml of Japanese Pharmacopoeia purified water (Kyoei Pharmaceutical Industries, Ltd.) was further added and sheet formation was observed from a wide view for 72 hours.
Using 10 mg of free N-palmitoyl-Gly-His, each 2.0 mL of 30%, 20%, and 10% glycerin aqueous solutions was added so as to become a 0.5% (w/v) solution, and the mixture solution was heated and dissolved at 80° C. The solution was placed in a glass petri dish having an inner diameter of 2.2 cm and allowed to cool at room temperature. […] Then, the obtained gel was transferred onto a glass substrate.

Residues, ends and D or L forms follow the SMILES beside them. Some results are limits rather than exact numbers.

`CCCCCCCCCCCCCCCC(=O)NCC(=O)N[C@@H](Cc1c[nH]cn1)C(=O)O` [Example 4, N-Palmitoyl-Gly-His] (HELM PEPTIDE1{[CCCCCCCCCCCCCCCC(=O)[*:2]].G.H}$$$$V2.0): the Gelation entry in data set [1] (0.5% (w/v), aqueous solution of Alanine 0.1 wt %) was “◯”; in data set [1] (0.5% (w/v), aqueous solution of Aspartic acid 0.27 wt %) it was “◯”; in data set [1] (0.5% (w/v), aqueous solution of Glycine 0.1 wt %) it was “◯”; in data set [1] (0.5% (w/v), aqueous solution of KCl 0.1 wt %) it was “Δ”; in data set [1] (0.5% (w/v), aqueous solution of KCl 0.5 wt %), “Δ”; in data set [1] (0.5% (w/v), aqueous solution of Lysine hydrochloride 0.1 wt %) it was “Δ”. In addition, the Gelation result in data set [1] (0.5% (w/v), aqueous solution of NaCl 0.1 wt %) is “Δ”; in data set [1] (0.5% (w/v), aqueous solution of NaCl 0.5 wt %), “◯”; in data set [1] (0.5% (w/v), aqueous solution of Phenoxyethanol 0.25 wt %), “◯”; in data set [1] (1.0% (w/v), aqueous solution of KCl 0.1 wt %), “◯”; in data set [1] (1.0% (w/v), aqueous solution of KCl 0.5 wt %) it was “◯”; in data set [1] (1.0% (w/v), aqueous solution of NaCl 0.1 wt %), “◯”. In addition, the Gelation entry was “◯” in data set [1] (1.0% (w/v), aqueous solution of NaCl 0.5 wt %); “◯” in data set [1] (1.0% (w/v), aqueous solution of Phenoxyethanol 0.25 wt %); “gelation was observed in each case” in data set [3]. In addition, the “Concentration at which a transparent gel was obtained” value in data set [2] is no less than 0.5 wt %.
